Experimental data reported in US8765688B2, “Anti-dandruff compositions containing peptides” (priority 2007, dated 2014).
Ends that are not written are not given here.

Key:
Type in all cases: cell-based
Malassezia furfur [1] = assay: Growth inhibition of Malassezia furfur with equal concentrations (% by weight) of P18, Zincpyrithione, Climbazole and Ketoconazole, CFU; details: for colony-forming units: 50 μM final conc., mean ± SD
Description: (§1) Growth medium: M472-Pityrosporum medium according to DSMZ
(§2) The components were sterilized at 121° C., 1 bar superatmospheric pressure for 20 minutes.
(§3) 2 g/L of olive oil (sterilized by filtration and, after autoclaving, added to the other components)
(§4) Since it was a two-phase medium, the complete medium was treated with sonication in order to enlarge the phase boundary.
(§5) For agar plates, if appropriate, 150 g/L of agar agar were added to the medium.
(§6) The growth test was carried out as follows: A shake flask with M472-Pityrosporum medium was inoculated with M. furfur and incubated with shaking overnight at 30° C. and 200 rpm.
A 96-well microtiter plate was filled with in each case 100 μl of M472-Pityrosporum medium and inoculated with M. furfur suspension of the overnight culture. The M. furfur suspension was adjusted at the start of the experiment to an optical density, measured at 600 nm, of 0.02. The concentrates of the inhibitor solutions were 1 mM in DMSO for the peptide P18 and 10 mM in DMSO for Zincpyrithione, Ketoconazole and Climbazole. The DMSO final concentrations were maintained the same in all experiments. This means that a corresponding volume of DMSO was added to the mixture in the case of a higher concentration of Zincpyrithione, Ketoconazole or Climbazole concentrate in order to ensure comparability to the mixtures containing P18.
The growth of the following batches was compared by measuring the optical density:
M. furfur suspension and addition of P18 solution with a final concentration of 50 μM (equal to 0.0115% (w/w))
M furfur suspension and addition of Zincpyrithione (ZPT) solution with a final concentration of 362 μM (comparison to the mixture containing 50 μM of the peptide P18)
M furfur suspension and addition of Ketoconazole solution with a final concentration of 216 μM (comparison to the mixture containing 50 μM of the peptide P18)
M furfur suspension and addition of Climbazole solution with a final concentration of 390 μM (comparison to the mixture containing 50 μM of the peptide P18)
(§7) The microtiter plate was incubated with shaking at 30° C.
After 24 hours of incubation, the colony-forming units (CFU) were determined by plating out 10 μl of medium from each of the suspensions on agar plates. After incubation for 6 days, the colonies on the plates were counted. The CFU was determined in order to exclude an influence of the two-phase medium and also the growth form of M. furfur on the optical density. The experiments were carried out in at least two independent experiments, each with double determination.

Malassezia furfur [2] = assay: Effect of P18 variants against M. furfur, CFU after 24 hours at 50 μM
Description: The inhibitory effect of the following P18 variants against M. furfur was analyzed:
The experiments were carried out as follows:
as §1, §2, §3, §4, §5, §6
A 96-well microtiter plate was filled with in each case 100 μl of M472-Pityrosporum medium and inoculated with M. furfur suspension of the overnight culture. The M. furfur suspension was adjusted at the start of the experiment to an optical density, measured at 600 nm, of 0.1. […]
After 24 hours, the colony-forming units (CFU were determined by plating out 10 μl from each of the suspensions and, after incubation for 6 days, counting the colonies. Two independent experiments with in each case three identical mixtures were carried out and the number of colony-forming units was averaged.

Malassezia furfur [3] = assay: Minimum inhibitory concentration (MIC) of P18 in the presence of shampoo basic formulation 31-3, CFU after 24 hours; details: for CFU after 24 hours of incubation: in presence of shampoo basic formulation 31-3
Description: The minimum inhibitory concentration (MIC) of the peptide P18 (H-KWKLFKKIPKFLHLAKKF-NH2; carboxy-terminal end amidated; SEQ ID NO: 3) in the presence of the shampoo basic formulation 31-3 (table 16) was tested as follows: […]
The following shampoo basic formulation was prepared: […]
The shampoo basic formulation was prepared by mixing and dissolving the components Texapon NSO and Tego Betain L7. The pH was adjusted to pH 6-7 with NaOH.
The effect of the peptide against M. furfur was analyzed as follows:
as §1, §2, §3, §4, §5, §6
A 96-well microtiter plate was filled with in each case 170 μl of M472-Pityrosporum medium and inoculated with 10 μl of M. furfur suspension of the overnight culture. This corresponded to an optical density of 0.02-0.1, measured at 620 nm. 20 μl of shampoo basic formulation 31-3 were added to this mixture. Peptide P18 was dissolved in DMSO with a concentration of 10 mM.
as §7
After incubation for 24 hours, the colony-forming units (CFU) were determined by resuspending 1 μl of each of the suspensions in 10 μl of medium and then plating out the obtained suspensions. After incubation for 6 days, the colonies on the plate were counted. The experiment was carried out in double determination.

KWKLFKKIPKFLHLAKKF-NH2 [P18, KWKLFKKIPKFLHLAKKF-NH2]
reduction of CFU compared to reference substances (Malassezia furfur [1]; 50 μM (0.0115% (w/w)), equal % by weight, 24 hours): more effectively than the reference substances Zincpyrithione, Climbazole and Ketoconazole | colony-forming units (Malassezia furfur [1]; incubation time 24 h): 1 ± 1 | colony-forming units (Malassezia furfur [1]; incubation time 40 h): 0 ± 0 | Averaged number of colony-forming units (CFU) (Malassezia furfur [2]; 50 μM peptide in DMSO): 0 | inhibitory effect against M. furfur compared to DMSO (Malassezia furfur [2]; 50 μM, effectiveness increasing in the order P18AC-OH, P18-OH, P18): increased inhibitory effect against M. furfur as compared to DMSO | CFU after 24 hours of incubation (Malassezia furfur [3]; P18 concentration 25 μM): 80 | CFU after 24 hours of incubation (Malassezia furfur [3]; P18 concentration 50 μM): 32 | CFU after 24 hours of incubation (Malassezia furfur [3]; P18 concentration 100 μM): 0 | CFU after 24 hours of incubation (Malassezia furfur [3]; P18 concentration 200 μM): 0 | CFU after 24 hours of incubation (Malassezia furfur [3]; P18 concentration 300 μM): 0 | CFU after 24 hours of incubation (Malassezia furfur [3]; P18 concentration 400 μM): 0 | CFU after 24 hours of incubation (Malassezia furfur [3]; P18 concentration 500 μM): 0 | P18 concentrations that completely inhibit growth of M. furfur (Malassezia furfur [3]; in the presence of shampoo basic formulation 31-3, 24 hours): above 100 μM
